Several values for one entry are separate records, joined by “and”; a condition that tells them apart may be missing. Equal values may be shown once. Marks after values point to notes of the source that are not given here.
Tests used:
Assay type in all cases: in vivo, pig
[1] = test system: cross-bred pigs (Yorkshire×Landrace); assay: Hyperinsulinemic euglycemic/hyperglycemic clamp in STZ diabetic pigs
Experimental: (§1) Protocol 2: insulin-mediated hepatic glucose production and whole body glucose uptake were studied with the hyperinsulinemic (1 or 2 mU/kg/minute) euglycemic clamp technique in combination with 6,6-^2H-glucose infusion in six normal and seven STZ (130 mg/kg) diabetic pigs.
Protocol 3: insulin-mediated whole body glucose disposal was studied with the hyperinsulinemic (2 or 8 mU/kg/minute) euglycemic clamp technique in six normal and six STZ (150 mg/kg) diabetic pigs.
Protocol 4: insulin-mediated whole body glucose disposal under influence of acute mass action of plasma glucose was studied with the hyperinsulinemic (2 mU/kg/minute), euglycemic (6 mmol/L) and hyperglycemic (22 mmol/L) clamp technique in four STZ (110 mg/kg) diabetic pigs.
After overnight fasting, at t=0 minute, insulin was administered as a prime—(17 or 34 mU/kg) continuous (1 or 2 mU/kg/minute) infusion for three hours in normal pigs. Simultaneously, a variable infusion of a 33% D-glucose solution was started and adjusted every ten minutes to maintain the plasma glucose concentration at euglycemic levels and a 6,6-^2H-glucose solution was given as a prime—(216 mg) continuous (3.6 mg/minute). Steady-state conditions were achieved within 90 minutes after initiation of the hyperinsulinemic clamp and steady-state calculations were carried out during the last hour of the clamp (t=120, 135, 150, 165 and 180 minutes). In hyperglycemic diabetic pigs, insulin was given as a prime—(34 or 136 mU/kg) continuous (2 or 8 mU/kg/minute) infusion for five hours. After reaching euglycemic levels, a variable infusion of a 33% D-glucose solution was started and adjusted every ten minutes to maintain the plasma glucose concentration at euglycemia. At t=2 hours, 6,6-^2H-glucose was administered as a prime— (216 mg) continuous (3.6 mg/minute) infusion for the last three hours of the clamp in diabetic pigs. Steady-state conditions were achieved during the last hour of the clamp and steady-state calculations were carried out at (t=240, 255, 270, 285 and 300 minutes).
Hyperinsulinemic hyperglycemic clamp experiments were carried out in diabetic pigs only. After overnight fasting, insulin was given as a prime—(34 mU/kg) continuous (2 mU/kg/minute) infusion for five hours. Simultaneously, a variable infusion of a 33% D-glucose solution was started and adjusted every ten minutes to maintain the plasma glucose concentration at hyperglycemia. Steady-state calculations were carried out during the last hour of the clamp (t=240, 255, 270, 285 and 300 minutes).
6,6-^2H-glucose kinetics: Fasting and insulin-mediated rate of appearance (Ra) of glucose was calculated by dividing the 6,6-^2H-glucose infusion rate (mg/minute) by the plasma 6,6-^2H-glucose enrichment (mg/mg %). Insulin-mediated hepatic glucose production was calculated as measured Ra glucose minus exogenous glucose infusion rate. Under hyperglycemic conditions, the rate of disappearance (Rd) of glucose, or whole body glucose uptake was corrected for urinary glucose excretion. This implies that whole body glucose uptake was calculated as measured Ra glucose minus urinary glucose excretion.

[2] = test system: cross-bred pigs (Yorkshire×Landrace); assay: 6,6-2H-glucose tracer kinetics (fasting Ra glucose, hepatic glucose production, whole body glucose uptake) in STZ diabetic pigs; conditions: 130 mg STZ/kg
Experimental: Protocol 1: fasting hepatic glucose production and whole body glucose uptake were studied with 6,6-^2H-glucose infusion in five normal and five STZ (130 mg/kg) diabetic pigs.
as §1
After overnight fasting, a 6,6-^2H-glucose solution was administered as a prime—(72 mg) continuous (1.2 mg/minute) infusion for three hours in normal pigs. In diabetic pigs, 6,6-^2H-glucose was given as an adjusted prime— (216 mg) continuous (3.6 mg/minute) infusion for three hours (Koopmans et al., 1991). Isotopic steady-state conditions were achieved within 90 minutes after initiation of the tracer infusion and steady-state calculations were carried out during the last hour of the tracer infusion (t=120, 135, 150, 165 and 180 minutes). […]
Blood samples for determination of 6,6-^2H-glucose enrichment, glucose and insulin were collected in heparinized tubes (150 USP. U. Lithium Heparin, 10 mL Venoject, Terumo, Leuven, Belgium) and immediately chilled at 0° C. on ice and centrifuged at 4° C. for ten minutes at 3000 rpm. […] Selected ion monitoring, data acquisition and quantitative calculations were performed using the HP Chemstation software. Glucose concentration was determined using the internal standard method (xylose was added as internal standard). The internal standard was monitored at m/z 145. Glucose was monitored at m/z 187 for glucose and m/z 189 for d2-glucose. Glucose enrichments were calculated by dividing the area of the m/z 189 peak and the m/z 187 peak and correcting for natural enrichments. Isotopic enrichment was calculated as tracer-to-tracee ratio after subtracting the isotopic enrichment of a background plasma sample. An aliquot of the 6,6-^2H-glucose infusate was analyzed for the isotope concentration to calculate the actual infusion rate for each infusion experiment. […]

diabetic pigs = assay: Plasma insulin response after a standard meal in diabetic pigs two and nine weeks after STZ infusion; conditions: STZ 140 mg/kg infused for ten minutes, 25 diabetic pigs
Experimental: After 24 hours fasting, a standard meal (523 kJ ME/kg BW^0.75) was fed to the pigs and blood was sampled up to 480 minutes after feeding). Pigs were studied two and nine weeks after streptozotocin (STZ) infusion (140 mg/kg for ten minutes). […] However, as judged by the severity of diabetes (quantified by the 24-hour urinary glucose excretion in relation to standard meal feeding), the recovery/regeneration/hypertrophy of beta-cells takes place in the first three to four weeks after STZ infusion and stops after that time period (see FIG. 6).

[3] = pigs, STZ 110 mg/kg, 2 mU/kg/minute clamp at euglycemia
[4] = pigs, STZ 110 mg/kg, 2 mU/kg/minute clamp at hyperglycemia
[5] = pigs, STZ 110 mg/kg, clamp at hyperglycemia
[6] = pigs, STZ 130 mg/kg, insulin clamp 2 mU/kg/minute
[7] = pigs, STZ 150 mg/kg, insulin clamp 8 mU/kg/minute

For `CN(N=O)C(=O)N[C@H]1C(O)O[C@H](CO)[C@@H](O)[C@@H]1O` (mixture of isomers) [STZ, streptozotocin], the “Steady-state glucose infusion rate compared to average in normal pigs” value ([1]; STZ 150 mg/kg, insulin 8 mU/kg/minute) was “approximately eight-fold lower”, the “Fasting plasma insulin compared to normal and diabetic (1.50 mg STZ/kg) pigs” value ([1]; STZ 110 and 130 mg/kg, on average) was “two-fold higher” and the “Steady-state glucose infusion rates compared to average in normal pigs” value ([1]; STZ 110 to 130 mg/kg, insulin 2 mU/kg/minute) was “five- to six-fold lower”. The “Reduction in insulin action” value ([1]; STZ diabetic pigs) was ~75%, the “Fasting plasma insulin, range” value ([1]; diabetic (150 mg STZ/kg) pigs) was 0-6 mU/L and the “Increase of insulin-mediated whole body glucose disposal at hyperglycemia compared to euglycemia” value ([1]; pigs, STZ 110 mg/kg, 2 mU/kg/minute clamp) was 16%. For the same molecule, the Fasting plasma glucose [1, 3] was 22.3 ± 2.1 mmol/L, the “Steady-state clamp glucose infusion rate (insulin-mediated whole body glucose disposal)” value [1, 3] was 5.1 mg/kg/min and 5.1 ± 1.0 mg/kg/min and the “Steady-state clamp plasma glucose” value [1, 3] was 6.0 ± 0.1 mmol/L. The “Steady-state clamp plasma insulin” value [1, 3] was 54 ± 16 mU/L, the “Time to reach euglycemia in diabetic pigs” value (“Time to reach euglycemia” for short) [1, 3] was 139 ± 23 min and the Fasting plasma glucose [1, 4] was 23.0 ± 2.4 mmol/L. For the same molecule, the “Insulin-mediated whole body glucose disposal (glucose infusion rate minus urinary glucose excretion)” value [1, 4] was 5.9 mg/kg/min and 5.9 ± 0.8 mg/kg/min, the “Steady-state clamp glucose infusion rate” value [1, 4] was 8.2 ± 0.8*^1) mg/kg/minute and the “Steady-state clamp plasma glucose” value [1, 4] was 22.4 ± 2.6 mmol/L. For the same molecule, the “Steady-state clamp plasma insulin” value [1, 4] was 62 ± 19 mU/L, the Fasting plasma insulin ([1]; pigs, STZ 110 mg/kg, clamp at euglycemia) was 17 ± 13 mU/L and the Fasting plasma insulin [1, 5] was 12 ± 5 mU/L. The “Fasting plasma insulin, range” value [1, 5] was “range (3-21) mU/L”, the “Fasting plasma insulin, range” value ([1]; pigs, STZ 130 mg/kg) was 1-38 mU/L and the “Steady-state clamp glucose infusion rate” value [1, 6] was 5.0 ± 1.4 mg/kg/min. The “Steady-state clamp plasma glucose” value [1, 6] was 6.1 ± 0.8 mmol/L, the “Steady-state clamp plasma insulin” value [1, 6] was 45 ± 5 mU/L and the “Time to reach euglycemia” value [1, 6] was 145 ± 22 min. It also gave a Fasting plasma glucose ([1]; pigs, STZ 130 mg/kg, insulin clamp 2 mU/kg/minute, with 6,6-2H-glucose infusion, mean ± SEM) of 21.7 ± 1.1 mmol/L, a Fasting plasma insulin ([1]; pigs, STZ 130 mg/kg, insulin clamp 2 mU/kg/minute, mean ± SEM) of 9 mU/L and a Fasting plasma insulin ([1]; pigs, STZ 130 mg/kg, insulin clamp 2 mU/kg/minute, mean ± SEM, listed as Streptozotocin) of 9 ± 7 mU/L. For the same molecule, the “Fasting plasma insulin, range” value ([1]; pigs, STZ 130 mg/kg, listed as Streptozotocin) was “range (1-38) mU/L”, the Fasting plasma insulin [1, 7] was 3 ± 1 mU/L and the “Steady-state clamp glucose infusion rate” value [1, 7] was 3.2 ± 1.0 mg/kg/min. The “Steady-state clamp plasma glucose” value [1, 7] was 7.5 ± 0.9 mmol/L, the “Steady-state clamp plasma insulin” value [1, 7] was 228 ± 36 mU/L and the “Time to reach euglycemia” value [1, 7] was 243 ± 21 min. For the same molecule, the Fasting plasma glucose ([1]; pigs, STZ 150 mg/kg, insulin clamp 8 mU/kg/minute, no tracer) was 22.0 ± 0.8 mmol/L, the “Overnight fasting plasma glucose compared to normal pigs” value ([1]; three diabetic pig groups (STZ 110, 130 and 150 mg/kg), on average) was “four-fold greater” and the “Fasting Ra glucose compared to normal pigs” value [2] was “approximately two-fold greater”. For the same molecule, the “Insulin-inhibited hepatic glucose production versus normal pigs” value [2] was “two-fold greater”, the “Insulin-stimulated whole body glucose uptake versus normal pigs” value [2] was “three-fold lower” and the “Area under the curve for the plasma insulin response (0-480 minutes after meal), nine weeks compared to two weeks after STZ infusion” value (diabetic pigs) was “two-fold larger”.
